What follows are molecules tested on IL-2 production (assay: Inhibition of IL-2 production in PHA-activated Jurkat cells). Conditions: Homo sapiens, PHA 2.5 μg/mL, 20 hours, bins given in nM.
Format: cell-based
Procedure: Jurkat cells were placed in a 96 well plate (0.5 million cells per well in 1% FBS medium) then test compounds of this invention were added at different concentrations. After 10 minutes, the cells were activated with PHA (final concentration 2.5 μg/mL) and incubated for 20 hours at 37° C. under CO2. The final volume was 200 μL. Following incubation, the cells were centrifuged and the supernatants collected and stored at −70° C. prior to assaying for IL-2 production. A commercial kit (IL-2 Eli-pair, Diaclone Research, Besancon, France) was used to detect production of IL-2, from which dose response curves were obtained. The IC50 value was calculated as the concentration at which. 50% of maximum IL-2 production after stimulation was inhibited versus a non-stimulation control.
For COc1ccc2c(c1)nc(C(F)(F)F)n2-c1ccc(NC(=O)c2cc(F)cc(F)c2F)cc1 [Compound 2, 2,3,5-Trifluoro-N-[4-(2-trifluoromethyl-5-methoxy-benzoimidazol-1-yl)-phenyl]-benzamide], the IC50 was less than 100 nM. Work on COc1ccc2c(c1)nc(C(F)(F)F)n2-c1ccc(NC(=O)c2ccc(F)c(F)c2F)cc1 [Compound 3, 2,3,4-Trifluoro-N-[4-(2-trifluoromethyl-5-methoxy-benzoimidazol-1-yl)-phenyl]-benzamide] yielded an IC50 of less than 100 nM. COc1ccc2c(c1)nc(C(F)(F)F)n2-c1ccc(NC(=O)c2cccc(F)c2F)cc1 [Compound 4, 2,3-Difluoro-N-[4-(2-trifluoromethyl-5-methoxy-benzoimidazol-1-yl)-phenyl]-benzamide] was tested, and the IC50 was less than 100 nM. COc1ccc2c(c1)nc(C(F)(F)F)n2-c1ccc(NC(=O)c2ccncc2C)cc1 [Compound 5, 3-Methyl-N-[4-(2-trifluoromethyl-5-methoxy-benzoimidazol-1-yl)-phenyl]-isonicotinamide] gave an IC50 of less than 100 nM. COc1ccc2c(c1)nc(C(F)(F)F)n2-c1ccc(NC(=O)c2ccncc2F)cc1 [Compound 6, 3-Fluoro-N-[4-(2-trifluoromethyl-5-methoxy-benzoimidazol-1-yl)-phenyl]-isonicotinamide] gave an IC50 of less than 100 nM. Work on COc1ccc2c(c1)nc(C(F)(F)F)n2-c1ccc(NC(=O)c2cc(F)c(Cl)cc2Cl)cc1 [Compound 7, 2,4-Dichloro-5-fluoro-N-[4-(2-trifluoromethyl-5-methoxy-benzoimidazol-1-yl)-phenyl]-benzamide] yielded an IC50 of less than 100 nM. Molecule O=C(Nc1ccc(-c2c(C(F)(F)F)cc3n2CCCC3)cc1)c1cccc(F)c1F [Compound 8, 2,3-Difluoro-N-[4-(2-trifluoromethyl-5,6,7,8-tetrahydroindolizin-3-yl)-phenyl]-benzamide] has an IC50 of less than 100 nM. Molecule COc1ccc2c(c1)nc(C(F)(F)F)n2-c1ccc(NC(=O)c2cccc([N+](=O)[O-])c2)cc1 [Compound 10, 3-Nitro-N-[4-(2-trifluoromethyl-5-methoxy-benzoimidazol-1-yl)-phenyl]-benzamide] has an IC50 of less than 100 nM. CSc1nc2ccccc2n1-c1ccc(NC(=O)c2cccc(F)c2F)cc1 [Compound 11, 2,3-Difluoro-N-[4-(2-methylsulfanyl-benzoimidazol-1-yl)-phenyl]-benzamide] showed an IC50 of less than 100 nM. Fc1cccc(C(=S)Nc2ccc(-n3c(C(F)(F)F)nc4ccccc43)cc2)c1F [Compound 12, 2,3-Difluoro-N-[4-(2-trifluoromethyl-benzoimidazol-1-yl)-phenyl]-thiobenzamide] was tested, and the IC50 was less than 100 nM. O=C(Nc1ccc(-n2c(C(F)(F)F)nc3ccccc32)cc1)c1cccc(Cl)c1Cl [Compound 13, 2,3-Dichloro-N-[4-(2-trifluoromethyl-benzoimidazol-1-yl)-phenyl]-benzamide] was tested, and the IC50 was less than 100 nM. In the case of COc1ccc2nc(C(F)(F)F)n(-c3ccc(NC(=O)c4cccc(F)c4F)cc3)c2c1 [Compound 14, 2,3-Difluoro-N-[4-(2-trifluoromethyl-6-methoxy-benzoimidazol-1-yl)-phenyl]-benzamide], the IC50 is reported as less than 100 nM. With O=C(Nc1ccc(-n2c(C(F)(F)F)nc3ccccc32)cc1)c1cccc(Cl)c1F [Compound 15] the IC50 was 100 to 500 nM. In the case of Nc1cc(F)c(F)c(C(=O)Nc2ccc(-n3c(C(F)(F)F)nc4ccccc43)cc2)c1F [Compound 16, 2,3,6-Trifluoro-5-amino-N-[4-(2-trifluoromethyl-benzoimidazol-1-yl)-phenyl]-benzamide], the IC50 is reported as 100 to 500 nM. In the case of Cc1cc(NC(=O)c2cccc(F)c2F)ccc1-n1c(C(F)(F)F)nc2ccccc21 [Compound 17, 2,3-Difluoro-N-[3-methyl-4-(2-trifluoromethyl-benzoimidazol-1-yl)-phenyl]-benzamide], the IC50 is reported as 100 to 500 nM. In the case of Cc1ccccc1C(=O)Nc1ccc(-c2c(C(F)(F)F)cc3n2CCCC3)cc1 [Compound 18, 2-Methyl-N-[4-(2-trifluoromethyl-5,6,7,8-tetrahydroindolizin-3-yl)-phenyl]-benzamide], the IC50 is reported as 100 to 500 nM. Molecule N#Cc1ccc2nc(C(F)(F)F)n(-c3ccc(NC(=O)c4cccc(F)c4F)cc3)c2c1 [Compound 20, 2,3-Difluoro-N-[4-(2-trifluoromethyl-6-cyano-benzoimidazol-1-yl)-phenyl]-benzamide] has an IC50 of 100 to 500 nM. Nc1cccc2c1nc(C(F)(F)F)n2-c1ccc(NC(=O)c2cccc(F)c2F)cc1 [Compound 21, 2,3-Difluoro-N-[4-(2-trifluoromethyl-4-amino-benzoimidazol-1-yl)-phenyl]-benzamide] was tested, and the IC50 was 100 to 500 nM. With CC(C)(C)OC(=O)Nc1cc(F)c(F)c(C(=O)Nc2ccc(-n3c(C(F)(F)F)nc4ccccc43)cc2)c1F [Compound 22, N-(3-{N-[4-(2-trifluoromethyl-benzoimidazol-1-yl)-phenyl]-carbamoyl}-2,4,5-trifluoro-phenyl)-carbamic acid t-butyl ester] the IC50 was 100 to 500 nM. Work on O=C(Nc1ccc(-n2c(Cl)nc3ccccc32)cc1)c1cccc(F)c1F [Compound 23, 2,3-Difluoro-N-[4-(2-chloro-benzoimidazol-1-yl)-phenyl]-benzamide] yielded an IC50 of 100 to 500 nM. Cc1nnsc1C(=O)Nc1ccc(-c2c(Cl)cc3n2CCCC3)cc1 [Compound 24, 4-Methyl-[1,2,3]thiadiazole-5-carboxylic acid {N-[4-(2-chloro-5,6,7,8-tetrahydroindolizin-3-yl)-phenyl]} amide] was tested, and the IC50 was 100 to 500 nM. O=C(Nc1ccc(-n2c(C(F)(F)F)nc3ccccc32)cc1)c1cc(F)ccc1F [Compound 26, 2,5-Difluoro-N-[4-(2-trifluoromethyl-benzoimidazol-1-yl)-phenyl]-benzamide] was tested, and the IC50 was 100 to 500 nM. With O=C(Nc1ccc(-n2c(C(F)(F)F)nc3ccccc32)cc1)c1ccncc1F [Compound 27, 3-Fluoro-N-[4-(2-trifluoromethyl-benzoimidazol-1-yl)-phenyl]-isonicotinamide] the IC50 was 100 to 500 nM. Molecule O=C(Nc1ccc(-n2c(Br)nc3ccccc32)cc1)c1cccc(F)c1F [Compound 28, 2,3-Difluoro-N-[4-(2-bromo-benzoimidazol-1-yl)-phenyl]-benzamide] has an IC50 of 100 to 500 nM. Cc1nnsc1C(=O)Nc1ccc(-n2c(C(F)(F)F)nc3ccccc32)cc1 [Compound 29, 4-Methyl-[1,2,3]thiadiazole-5-carboxylic acid {N-[4-(2-trifluoromethyl-benzoimidazol-1-yl)-phenyl]} amide] was tested, and the IC50 was 100 to 500 nM. Molecule O=C(Nc1ccc(-n2c(C(F)(F)F)nc3ccccc32)c(C(F)(F)F)c1)c1cccc(F)c1F [Compound 30, 2,3-Difluoro-N-[3-trifluoromethyl-4-(2-trifluoromethyl-benzoimidazol-1-yl)-phenyl]-benzamide] has an IC50 of 100 to 500 nM. CC(C)(C)OC(=O)Nc1ccc(C(=O)Nc2ccc(-n3c(C(F)(F)F)nc4ccccc43)cc2)c(F)c1F [Compound 31, N-(4-{N-[4-(2-trifluoromethyl-benzoimidazol-1-yl)-phenyl]-carbamoyl}-2,3-difluoro-phenyl)-carbamic acid t-butyl ester] gave an IC50 of 100 to 500 nM. For COc1cc2nc(C(F)(F)F)n(-c3ccc(NC(=O)c4cccc(F)c4F)cc3)c2cc1OC [Compound 32, 2,3-Difluoro-N-[4-(2-trifluoromethyl-5,6-dimethoxy-benzoimidazol-1-yl)-phenyl]-benzamide], the IC50 was 100 to 500 nM. O=C(Nc1ccc(-n2c(I)nc3ccccc32)cc1)c1cccc(F)c1F [Compound 33, 2,3-Difluoro-N-[4-(2-iodo-benzoimidazol-1-yl)-phenyl]-benzamide] showed an IC50 of 100 to 500 nM. Fc1ccc(F)c(NC(=S)Nc2ccc(-n3c(C(F)(F)F)nc4ccccc43)nc2)c1 [Compound 34, N′-[2-(2-trifluoromethyl-benzoimidazol-1-yl)-pyrid-5-yl]-N-(2,5-difluoro-phenyl)-thiourea] showed an IC50 of 100 to 500 nM. For CC(C)(C)c1ccc2c(c1)nc(C(F)(F)F)n2-c1ccc(NC(=O)c2cccc(F)c2F)cc1 [Compound 35, 2,3-Difluoro-N-[4-(2-trifluoromethyl-5-tert-butyl-benzoimidazol-1-yl)-phenyl]-benzamide], the IC50 was 100 to 500 nM. Molecule N#Cc1cc(NC(=O)c2cccc(F)c2F)ccc1-n1c(C(F)(F)F)nc2ccccc21 [Compound 37, 2,3-Difluoro-N-[3-cyano-4-(2-trifluoromethyl-benzoimidiazol-1-yl)-phenyl]-benzamide] has an IC50 of 100 to 500 nM. With O=C(Nc1ccc(-n2c(C(F)(F)F)nc3ccccc32)c(Cl)c1)c1cc(F)ccc1F [Compound 38, 2,5-Difluoro-N-[3-chloro-4-(2-trifluoromethyl-benzoimidazol-1-yl)-phenyl]-benzamide] the IC50 was 100 to 500 nM. For Nc1ccc2c(c1)nc(C(F)(F)F)n2-c1ccc(NC(=O)c2cccc(F)c2F)cc1 [Compound 39, 2,3-Difluoro-N-[4-(2-trifluoromethyl-5-amino-benzoimidazol-1-yl)-phenyl]-benzamide], the IC50 was 100 to 500 nM. For C[S+]([O-])c1nc2ccccc2n1-c1ccc(NC(=O)c2cccc(F)c2F)cc1 (centres unmarked) [Compound 40, 2,3-Difluoro-N-[4-(2-methanesulfinyl-benzoimidazol-1-yl)-phenyl]-benzamide], the IC50 was 100 to 500 nM.

Same assay, conditions: Homo sapiens, PHA 2.5 μg/mL, 20 hours, bins given with μM limit
For CC(C)c1nc2ccccc2n1-c1ccc(NC(=O)c2cccc(F)c2F)cc1 [Compound 49, 2,3-Difluoro-N-[4-(2-isopropyl-benzoimidazol-1-yl)-phenyl]-benzamide], the IC50 was greater than 1000 nM. Molecule O=C(Nc1ccc(-n2c(C(F)(F)F)nc3ccccc32)cc1)Nc1cc(F)ccc1F [Compound 50, N′-[4-(2-trifluoromethy-benzoimidazol-1-yl)-phenyl]-N-(2,5-difluoropheyl)-urea] has an IC50 greater than 1000 nM. In the case of O=C(Nc1ccc(-n2c(C(F)(F)F)nc3ccccc32)cc1)c1cc[n+]([O-])cc1F [Compound 51, 1-Oxo-3-fluoro-N-[4-(2-trifluoromethyl-benzoimidazol-1-yl)-phenyl]-isonicotinamide], the IC50 is reported as greater than 1000 nM.
